According to the NIST ThermoML archive (doi:10.1016/j.jct.2011.05.030):

Columns and labels:
[1] = Crystal; for vapor or sublimation pressure: Calculated from knudsen effusion weight loss; for Normal melting temperature: DTA
[2] = Molar enthalpy of transition or fusion; conditions: Crystal; DSC

c1ccc2c(c1)-c1cccc3c1c-2cc1ccccc13 [benz[e]acephenanthrylene]
[1]
Conditions | vapor or sublimation pressure [kPa]
364.1 K | 4.7e-06
369.3 K | 8.12e-06
374.2 K | 1.46e-05
377.2 K | 1.9e-05
379.2 K | 2.41e-05
382.2 K | 3.21e-05
384.2 K | 3.95e-05
387.2 K | 5.4e-05
389.1 K | 6.22e-05
392.1 K | 8.51e-05
394.2 K | 0.000101
397.1 K | 0.000131
399.1 K | 0.000159
404.1 K | 0.00023
409 K | 0.000356
414.1 K | 0.000533

Conditions | Molar enthalpy of transition or fusion [kcal/mol] | Normal melting temperature [°C]
[1] | – | 168.00
[2] | 4.37 | –

c1cc2ccc3ccc4ccc5cccc6c(c1)c2c3c4c56 [benzo[ghi]perylene]
[1]
Conditions | vapor or sublimation pressure [kPa]
399.1 K | 4.16e-06
404 K | 7e-06
409 K | 1.15e-05
414.4 K | 1.79e-05
419 K | 2.83e-05
424 K | 4.36e-05
429 K | 6.54e-05
434.1 K | 0.000104
439 K | 0.000138
441 K | 0.000207
449.1 K | 0.000303
454.1 K | 0.000432

Conditions | Molar enthalpy of transition or fusion [kcal/mol] | Normal melting temperature [°C]
[1] | – | 272.50
[2] | 3.9 | –

c1ccc2cc3c(cc2c1)-c1cccc2cccc-3c12 [benzo[k]fluoranthene]
[1]
Conditions | vapor or sublimation pressure [kPa]
384.2 K | 1.63e-05
389.2 K | 2.42e-05
394.1 K | 3.62e-05
399.1 K | 5.62e-05
404 K | 8.86e-05
409 K | 0.000136
411 K | 0.000157
419 K | 0.000383
424 K | 0.000557

Conditions | Molar enthalpy of transition or fusion [kcal/mol] | Normal melting temperature [°C]
[1] | – | 217.00
[2] | 6.33 | –

c1ccc2c(c1)ccc1cc3c(ccc4ccccc43)cc12 [dibenz[a,h]anthracene]
[1]
Conditions | vapor or sublimation pressure [kPa]
399.2 K | 5.11e-06
404 K | 5.53e-06
409.1 K | 9.22e-06
414 K | 1.39e-05
419.1 K | 3.95e-05
424.2 K | 5.45e-05
429.2 K | 8.89e-05
434.2 K | 0.000112
439.1 K | 0.000174
444.1 K | 0.00028
449.1 K | 0.000369

Conditions | Molar enthalpy of transition or fusion [kcal/mol] | Normal melting temperature [°C]
[1] | – | 269.50
[2] | 5.86 | –

c1ccc2c(c1)-c1ccc3ccc4cccc5cc-2c1c3c45 [indeno[1,2,3-cd]pyrene]
[1]
Conditions | vapor or sublimation pressure [kPa]
384.1 K | 5.38e-06
389.1 K | 7.96e-06
394.2 K | 1.3e-05
399.2 K | 2.19e-05
404.1 K | 3.28e-05
409.1 K | 5.33e-05
414.1 K | 8.53e-05
419.1 K | 0.000133
424.1 K | 0.000201

Conditions | Molar enthalpy of transition or fusion [kcal/mol] | Normal melting temperature [°C]
[1] | – | 162.00
[2] | 5.47 | –
